Experimental data as given in patent publication US9458172B2, “Pyridinyl and pyrimidinyl sulfoxide and sulfone derivatives” (priority 2012, dated 2016).
Where two headings read alike, the source gives them in different places.

Columns and labels:
NAMPT = NAMPT (Homo sapiens (Human), UniProt P43490); test: Biochemical Inhibition Assay (NAMPT enzymatic reaction, NMN quantified by mass spectrometry); details: 33 nM recombinant His-tagged NAMPT, 1 μM NAM, 30 min at rt
Description: Assay 1: Biochemical Inhibition Assay
NAMPT protein purification. Recombinant His-tagged NAMPT was produced in E. coli cells, purified over a Ni column, and further purified over a size-exclusion column by XTAL Biostructures.
The NAMPT Enzymatic Reaction. The NAMPT enzymatic reactions were carried out in Buffer A (50 mM Hepes pH 7.5, 50 mM NaCl, 5 mM MgCl2, and 1 mM THP) in 96-well V-bottom plates. The compound titrations were performed in a separate dilution plate by serially diluting the compounds in DMSO to make a 100× stock. […] The compound and enzyme mixture was incubated for 15 min at rt, then 10 μL of 10× substrate and co-factors in Buffer A were added to the test well to make a final concentration of 1 μM NAM, […] 5-Phospho-D-ribose 1-diphosphate (PRPP), and 2.5 mM Adenosine 5′-triphosphate (ATP). The reaction was allowed to proceed for 30 min at rt, then was quenched with the addition of 11 μL of a solution of formic acid and L-Cystathionine to make a final concentration of 1% formic acid and 10 μM L-Cystathionine. Background and signal strength was determined by addition (or non-addition) of a serial dilution of NMN to a pre-quenched enzyme and cofactor mix.
Quantification of NMN. A mass spectrometry-based assay was used to measure the NAMPT reaction product, β-nicotinamide mononucleotide (NMN), and the internal control (L-Cystathionine). NMN and L-Cystathionine were detected using the services of Biocius Lifesciences with the RapidFire system. In short, the NMN and L-Cystathionine were bound to a graphitic carbon cartridge in 0.1% formic acid, eluted in 30% acetonitrile buffer, and injected into a Sciex 4000 mass spectrometer. The components of the sample were ionized with electrospray ionization and the positive ions were detected. […] The fragments are quantified and the analyzed by the following method.
Determination of IC50 Values. First, the NMN signal was normalized to the L-Cystathionine signal by dividing the NMN signal by the L-Cystathionine signal for each well. The signal from the background wells were averaged and subtracted from the test plates.

A2780 cells = test: In-Vitro Cell Proliferation Assay (SRB)
Description: Assay 2: In-Vitro Cell Proliferation Assay
Assay Method. […] The compounds were then further diluted to 10 OX final concentration in culture media, whereupon 20 μL of each dilution was added to the plated cells with controls (e.g. DMSO and blank) to make a final volume of 200 μL. The final DMSO concentration in each well was 0.1%. The plates were then incubated for 72 h at 37° C. in a 5% CO2 incubator. The number of viable cells was then assessed using sulforhodamine B (SRB) assay. Cells were fixed at 4° C. for 1 h with the addition of 50 μL 30% trichloroacetic acid (TCA) to make a final concentration of 6% TCA. The plates were washed four times with H2O and allowed to dry for at least 1 h, whereupon 100 μL of a 4% SRB in 1% acetic acid solution was added to each well and incubated at rt for at least 30 min. The plates were then washed three times with 1% acetic acid, dried, and treated with 100 μL of 10 mM Tris-Base solution. The plates were then read in a microplate reader at an absorbance of 570 nm. Background was generated on a separate plate with media only.
Determination of IC50 Values. First, the signals from the background plate were averaged, then the background was subtracted from the test plates.
The specificity of the compounds were determined via cell viability assay in the presence of the compound and either NAM or NMN Percent inhibitions were determined using the method given above.

[1] = read-out: Cell Proliferation (IC50), A2780 cells, 72 h, sulforhodamine B
[2] = Homo sapiens, A2780, 72 h, read-out: Cell Proliferation (IC50)
[3] = Homo sapiens, A2780, 72 h, read-out: Cell Proliferation (IC50), A2780 cells, 72 h, sulforhodamine B

Chain of NAMPT (P43490 whole entry): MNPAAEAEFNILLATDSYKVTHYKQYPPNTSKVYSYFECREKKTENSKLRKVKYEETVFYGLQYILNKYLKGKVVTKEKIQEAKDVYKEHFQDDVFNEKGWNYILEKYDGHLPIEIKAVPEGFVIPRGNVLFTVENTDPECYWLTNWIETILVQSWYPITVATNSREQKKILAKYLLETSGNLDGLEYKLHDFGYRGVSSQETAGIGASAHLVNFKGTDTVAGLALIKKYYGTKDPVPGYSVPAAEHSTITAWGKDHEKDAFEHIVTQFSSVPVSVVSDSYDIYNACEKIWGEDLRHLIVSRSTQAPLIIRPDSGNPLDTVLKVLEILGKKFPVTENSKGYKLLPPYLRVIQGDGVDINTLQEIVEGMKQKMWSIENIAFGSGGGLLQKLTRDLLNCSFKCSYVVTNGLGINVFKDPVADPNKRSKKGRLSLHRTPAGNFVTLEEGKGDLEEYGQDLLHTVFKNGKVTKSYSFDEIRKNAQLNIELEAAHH

| Structure (SMILES) | IC50 (NAMPT) | IC50 (A2780 cells; [1]) | IC50 (A2780 cells; [2]) | IC50 (A2780 cells; [3]) |
| --- | --- | --- | --- | --- |
| O=C(NCc1ccc([S+]([O-])c2cc(F)cc(F)c2)cn1)N1Cc2ccncc2C1 (single isomer, unassigned; enantiomer 1) [Example 159, N-[[5-(3,5-difluorophenyl)sulfinyl-2-pyridyl]methyl]-1,3-dihydropyrrolo[3,4-c]pyridine-2-carboxamide (enantiomer 1)] | 635 nM | 2000 nM | – | – |
| O=C(NCc1ccc([S+]([O-])c2cc(F)cc(F)c2)cn1)N1Cc2ccncc2C1 (single isomer, unassigned; enantiomer 2) [Example 160, N-[[5-(3,5-difluorophenyl)sulfinyl-2-pyridyl]methyl]-1,3-dihydropyrrolo[3,4-c]pyridine-2-carboxamide (enantiomer 2)] | 20.1 nM | 19.6 nM | – | – |
| O=C(NCc1ccc(S(=O)(=O)c2cc(F)cc(F)c2)cn1)c1cnc2[nH]ncc2c1 [Example 1, 1H-Pyrazolo[3,4-b]pyridine-5-carboxylic acid [5-(3,5-difluoro-benzenesulfonyl)-pyridin-2-ylmethyl]-amide] | 56.3 nM | – | 91 nM | – |
| O=C(NCc1ccc(S(=O)(=O)c2cc(F)cc(F)c2)cn1)c1cnc2nccn2c1 [Example 2, Imidazo[1,2-a]pyrimidine-6-carboxylic acid [5-(3,5-difluoro-benzenesulfonyl)-pyridin-2-ylmethyl]-amide] | 6.5 nM | – | 52.6 nM | – |
| O=C(NCc1ccc(S(=O)(=O)c2cc(F)cc(F)c2)cn1)c1ccc2nccn2c1 [Example 4, Imidazo[1,2-a]pyridine-6-carboxylic acid [5-(3,5-difluoro-benzenesulfonyl)-pyridin-2-ylmethyl]-amide] | 7.1 nM | – | 9.2 nM | – |
| O=C(NCc1ncc(S(=O)(=O)c2ccccc2)cn1)c1cnc2[nH]ncc2c1 [Example 6, 1H-Pyrazolo[3,4-b]pyridine-5-carboxylic acid (5-benzenesulfonyl-pyrimidin-2-ylmethyl)-amide] | 108 nM | – | – | 2000 nM |
| O=C(NCc1ncc(S(=O)(=O)c2ccccc2)cn1)c1cc2cnccc2[nH]1 [Example 7, 1H-Pyrrolo[3,2-c]pyridine-2-carboxylic acid (5-benzenesulfonyl-pyrimidin-2-ylmethyl)-amide] | 150 nM | – | 131 nM | – |
| O=C(NCc1ncc(S(=O)(=O)c2ccccc2)cn1)c1ccc2nccn2c1 [Example 8, Imidazo[1,2-a]pyridine-6-carboxylic acid (5-benzenesulfonyl-pyrimidin-2-ylmethyl)-amide] | 352 nM | – | – | 459 nM |
| O=C(NCc1ccc(S(=O)(=O)c2cccc(C(F)(F)F)c2)cn1)c1ccc2nccn2c1 [Example 10, Imidazo[1,2-a]pyridine-6-carboxylic acid [5-(3-trifluoromethyl-benzenesulfonyl)-pyridin-2-ylmethyl]-amide] | 12.7 nM | – | – | 8.3 nM |
| O=C(NCc1ncc(S(=O)(=O)c2ccccc2)cn1)c1cnc2nccn2c1 [Example 12, Imidazo[1,2-a]pyrimidine-6-carboxylic acid (5-benzenesulfonyl-pyrimidin-2-ylmethyl)-amide] | 19.1 nM | – | 828 nM | – |
| O=C(NCc1ccc(S(=O)(=O)c2cccc(OC(F)(F)F)c2)cn1)c1ccc2nccn2c1 [Example 13, Imidazo[1,2-a]pyridine-6-carboxylic acid [5-(3-trifluoromethoxy-benzenesulfonyl)-pyridin-2-ylmethyl]-amide] | 8.5 nM | – | 13.6 nM | – |
| O=C(NCc1ccc(S(=O)(=O)c2cccc(C(F)(F)F)c2)cn1)c1cnc2[nH]ncc2c1 [Example 16, 1H-Pyrazolo[3,4-b]pyridine-5-carboxylic acid [5-(3-trifluoromethyl-benzenesulfonyl)-pyridin-2-ylmethyl]-amide] | 39.4 nM | – | 16.3 nM | – |
| O=C(NCc1ccc(S(=O)(=O)c2cccc(C(F)(F)F)c2)cn1)c1cc2cnccc2[nH]1 [Example 17, 1H-Pyrrolo[3,2-c]pyridine-2-carboxylic acid [5-(3-trifluoromethyl-benzenesulfonyl)-pyridin-2-ylmethyl]-amide] | 19.1 nM | – | 9.1 nM | – |
| O=C(NCc1ccc(S(=O)(=O)c2cccc(C(F)(F)F)c2)cn1)c1cnc2nccn2c1 [Example 18, Imidazo[1,2-a]pyrimidine-6-carboxylic acid (5-(3-trifluoromethyl-benzenesulfonyl)-pyridin-2-ylmethyl]-amide] | 4.7 nM | – | 11.7 nM | – |
| O=C(NCc1ccc(S(=O)(=O)c2cccc(OC(F)(F)F)c2)cn1)c1cnc2nccn2c1 [Example 20, Imidazo[1,2-a]pyrimidine-6-carboxylic acid [5-(3-trifluoromethoxy-benzenesulfonyl)-pyridin-2-ylmethyl]-amide] | 3.4 nM | – | 11.4 nM | – |
| O=C(NCc1ccc(S(=O)(=O)c2cccc(OC(F)(F)F)c2)cn1)c1cc2ccncc2o1 [Example 23, Furo[2,3-c]pyridine-2-carboxylic acid [5-(3-trifluoromethoxy-benzenesulfonyl)-pyridin-2-ylmethyl)-amide] | 6.1 nM | – | 10.8 nM | – |
| O=C(NCc1ccc(S(=O)(=O)C2CCNCC2)cn1)c1cc2ccncc2o1 [Example 26, Furo[2,3-c]pyridine-2-carboxylic acid [5-(piperidine-4-sulfonyl)-pyridin-2-ylmethyl]-amide] | 204 nM | – | 2000 nM | – |
| O=C(NCc1ccc(S(=O)(=O)C2CCNCC2)cn1)c1ccc2nccn2c1 [Example 27, Imidazo[1,2-a]pyridine-6-carboxylic acid [5-(piperidine-4-sulfonyl)-pyridin-2-ylmethyl]-amide] | 572 nM | – | 930 nM | – |
| O=C(NCc1ccc(S(=O)(=O)c2ccc(N3CCOCC3)cc2)cn1)c1ccc2nccn2c1 [Example 30, Imidazo[1,2-a]pyridine-6-carboxylic acid (5-(4-morpholin-4-yl-benzenesulfonyl)-pyridin-2-ylmethyl]-amide] | 7.2 nM | – | – | 1.6 nM |
| O=C(NCc1ccc(S(=O)(=O)c2ccc(N3CCOCC3)cc2)cn1)c1cnc2[nH]ncc2c1 [Example 31, 1H-Pyrazolo[3,4-b]pyridine-5-carboxylic acid [5-(4-morpholin-4-yl-benzenesulfonyl)-pyridin-2-ylmethyl]-amide] | 19.3 nM | – | 7.3 nM | – |
| COc1cccc(S(=O)(=O)c2ccc(CNC(=O)c3cc4ccncc4o3)nc2)c1 [Example 32] | 6.1 nM | – | 9.1 nM | – |
| COc1cccc(S(=O)(=O)c2ccc(CNC(=O)c3cnc4nccn4c3)nc2)c1 [Example 33, Imidazo[1,2-a]pyrimidine-6-carboxylic acid [5-(3-methoxy-benzenesulfonyl)-pyridin-2-ylmethyl]-amide] | 4.6 nM | – | 28.6 nM | – |
| COc1cccc(S(=O)(=O)c2ccc(CNC(=O)c3cnc4[nH]ncc4c3)nc2)c1 [Example 34, 1H-Pyrazolo[3,4-b]pyridine-5-carboxylic acid [5-(3-methoxy-benzenesulfonyl)-pyridin-2-ylmethyl]-amide] | 59.9 nM | – | 104 nM | – |
| O=C(NCc1ccc(S(=O)(=O)c2ccc(N3CCOCC3)nc2)cn1)c1ccc2nccn2c1 [Example 35, Imidazo[1,2-a]pyridine-6-carboxylic acid [5-(6-morpholin-4-yl-pyridine-3-sulfonyl)-pyridin-2-ylmethyl]-amide] | 8.6 nM | – | 2 nM | – |
| Cn1cc(S(=O)(=O)c2ccc(CNC(=O)c3ccc4nccn4c3)nc2)cn1 [Example 36, Imidazo[1,2-a]pyridine-6-carboxylic acid [5-(1-methyl-1H-pyrazole-4-sulfonyl)-pyridin-2-ylmethyl]-amide] | 101 nM | – | 472 nM | – |
| O=C(NCc1ccc(S(=O)(=O)c2ccc(N3CCOCC3)cc2)cn1)c1cc2ccncc2o1 [Example 37, Furo[2,3-c]pyridine-2-carboxylic acid [5-(4-morpholin-4-yl-benzenesulfonyl)-pyridin-2-ylmethyl]-amide] | 3.5 nM | – | 1 nM | – |
| O=C(NCc1ccc(S(=O)(=O)c2ccc(N3CCOCC3)cc2)cn1)c1cnc2nccn2c1 [Example 38, Imidazo[1,2-a]pyrimidine-6-carboxylic acid [5-(4-morpholin-4-yl-benzenesulfonyl)-pyridin-2-ylmethyl]-amide] | 2.1 nM | – | – | 10 nM |
| O=C(NCc1ccc(S(=O)(=O)c2ccc(N3CCOCC3)cc2)cn1)c1cc2ccncc2s1 [Example 39, Thieno[2,3-c]pyridine-2-carboxylic acid [5-(4-morpholin-4-yl-benzenesulfonyl)-pyridin-2-ylmethyl]-amide] | 2.8 nM | – | – | 0.8 nM |
